The target of one test is T1, Androgen receptor (Homo sapiens, UniProt P10275).
T1 sequence (P10275 whole entry): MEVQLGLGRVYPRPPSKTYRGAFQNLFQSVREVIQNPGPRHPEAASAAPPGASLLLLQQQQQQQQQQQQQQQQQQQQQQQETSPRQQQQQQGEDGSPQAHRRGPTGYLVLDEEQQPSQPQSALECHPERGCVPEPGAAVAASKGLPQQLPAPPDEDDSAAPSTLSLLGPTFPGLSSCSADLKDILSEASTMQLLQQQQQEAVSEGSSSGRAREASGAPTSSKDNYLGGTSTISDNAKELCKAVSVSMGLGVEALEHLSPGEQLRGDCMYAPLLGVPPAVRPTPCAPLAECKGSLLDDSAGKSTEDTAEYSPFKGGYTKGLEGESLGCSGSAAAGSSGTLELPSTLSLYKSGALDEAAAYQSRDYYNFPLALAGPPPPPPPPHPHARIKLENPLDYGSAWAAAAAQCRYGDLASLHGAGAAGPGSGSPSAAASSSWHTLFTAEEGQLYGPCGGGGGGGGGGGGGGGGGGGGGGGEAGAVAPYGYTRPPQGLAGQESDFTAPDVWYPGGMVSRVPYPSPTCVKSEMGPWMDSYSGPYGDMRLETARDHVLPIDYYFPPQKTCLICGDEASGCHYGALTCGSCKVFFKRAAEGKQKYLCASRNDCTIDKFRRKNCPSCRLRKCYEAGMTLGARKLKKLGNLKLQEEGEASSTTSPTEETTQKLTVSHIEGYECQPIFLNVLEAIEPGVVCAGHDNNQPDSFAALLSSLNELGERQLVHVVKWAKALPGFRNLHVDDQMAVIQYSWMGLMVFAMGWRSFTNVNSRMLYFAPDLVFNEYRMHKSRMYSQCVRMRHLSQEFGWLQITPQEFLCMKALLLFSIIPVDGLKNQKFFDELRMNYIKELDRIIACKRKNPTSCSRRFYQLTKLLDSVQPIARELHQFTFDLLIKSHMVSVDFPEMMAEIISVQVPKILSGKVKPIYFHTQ

The target of test [1] is Vascular endothelial growth factor receptor 2 (Homo sapiens, UniProt P35968). It counts as functional.
Vascular endothelial growth factor receptor 2, sequence (P35968 whole entry): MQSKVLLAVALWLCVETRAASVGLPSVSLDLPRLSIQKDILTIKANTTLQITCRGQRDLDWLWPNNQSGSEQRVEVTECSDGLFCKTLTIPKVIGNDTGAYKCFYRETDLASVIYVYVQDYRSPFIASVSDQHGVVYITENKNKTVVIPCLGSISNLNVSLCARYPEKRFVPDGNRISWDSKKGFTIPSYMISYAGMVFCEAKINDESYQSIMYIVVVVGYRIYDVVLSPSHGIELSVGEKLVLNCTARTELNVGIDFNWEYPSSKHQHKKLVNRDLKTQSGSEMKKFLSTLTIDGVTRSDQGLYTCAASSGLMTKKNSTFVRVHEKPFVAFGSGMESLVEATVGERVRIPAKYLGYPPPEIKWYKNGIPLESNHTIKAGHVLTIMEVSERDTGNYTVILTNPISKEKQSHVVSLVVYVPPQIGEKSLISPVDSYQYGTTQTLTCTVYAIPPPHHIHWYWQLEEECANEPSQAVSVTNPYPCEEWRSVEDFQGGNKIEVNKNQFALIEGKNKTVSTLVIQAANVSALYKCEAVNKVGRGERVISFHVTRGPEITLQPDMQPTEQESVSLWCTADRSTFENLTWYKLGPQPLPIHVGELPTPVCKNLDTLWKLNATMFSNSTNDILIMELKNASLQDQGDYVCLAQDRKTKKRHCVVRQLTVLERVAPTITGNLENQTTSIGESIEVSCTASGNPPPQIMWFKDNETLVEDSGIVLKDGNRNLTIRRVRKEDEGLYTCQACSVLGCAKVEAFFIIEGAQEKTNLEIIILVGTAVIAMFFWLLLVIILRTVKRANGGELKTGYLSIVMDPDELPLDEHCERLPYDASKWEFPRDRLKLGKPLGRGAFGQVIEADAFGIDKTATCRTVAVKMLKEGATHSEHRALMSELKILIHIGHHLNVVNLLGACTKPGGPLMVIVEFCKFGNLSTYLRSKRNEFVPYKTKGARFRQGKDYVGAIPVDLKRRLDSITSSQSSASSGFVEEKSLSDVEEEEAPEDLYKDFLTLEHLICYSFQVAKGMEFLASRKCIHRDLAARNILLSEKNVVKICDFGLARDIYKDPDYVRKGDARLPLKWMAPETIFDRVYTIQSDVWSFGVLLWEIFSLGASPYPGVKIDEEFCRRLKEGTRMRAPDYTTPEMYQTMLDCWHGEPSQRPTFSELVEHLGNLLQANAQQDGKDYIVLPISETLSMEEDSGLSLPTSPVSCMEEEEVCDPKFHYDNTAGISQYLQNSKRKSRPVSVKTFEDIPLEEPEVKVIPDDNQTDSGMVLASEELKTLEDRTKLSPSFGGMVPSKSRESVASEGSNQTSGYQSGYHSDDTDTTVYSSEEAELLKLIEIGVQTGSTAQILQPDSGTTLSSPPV
Test [2] concerns the target T2, Alpha-2B adrenergic receptor (Homo sapiens, UniProt P18089).
T2 sequence (P18089 whole entry): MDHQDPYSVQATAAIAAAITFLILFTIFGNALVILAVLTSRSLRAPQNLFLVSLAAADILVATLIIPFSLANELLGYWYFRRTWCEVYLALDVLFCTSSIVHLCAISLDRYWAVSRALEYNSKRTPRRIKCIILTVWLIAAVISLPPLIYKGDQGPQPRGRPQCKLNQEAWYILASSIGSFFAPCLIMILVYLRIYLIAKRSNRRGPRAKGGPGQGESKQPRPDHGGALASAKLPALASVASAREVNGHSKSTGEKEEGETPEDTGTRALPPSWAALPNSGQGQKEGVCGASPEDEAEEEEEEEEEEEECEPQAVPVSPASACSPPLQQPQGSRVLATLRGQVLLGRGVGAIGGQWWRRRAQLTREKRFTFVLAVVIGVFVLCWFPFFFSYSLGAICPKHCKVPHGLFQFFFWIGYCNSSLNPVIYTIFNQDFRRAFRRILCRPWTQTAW

Test [3] deals with Gamma-aminobutyric acid receptor subunit alpha-1 (Rattus norvegicus, UniProt P62813). It counts as functional.
Gamma-aminobutyric acid receptor subunit alpha-1, sequence (P62813 whole entry): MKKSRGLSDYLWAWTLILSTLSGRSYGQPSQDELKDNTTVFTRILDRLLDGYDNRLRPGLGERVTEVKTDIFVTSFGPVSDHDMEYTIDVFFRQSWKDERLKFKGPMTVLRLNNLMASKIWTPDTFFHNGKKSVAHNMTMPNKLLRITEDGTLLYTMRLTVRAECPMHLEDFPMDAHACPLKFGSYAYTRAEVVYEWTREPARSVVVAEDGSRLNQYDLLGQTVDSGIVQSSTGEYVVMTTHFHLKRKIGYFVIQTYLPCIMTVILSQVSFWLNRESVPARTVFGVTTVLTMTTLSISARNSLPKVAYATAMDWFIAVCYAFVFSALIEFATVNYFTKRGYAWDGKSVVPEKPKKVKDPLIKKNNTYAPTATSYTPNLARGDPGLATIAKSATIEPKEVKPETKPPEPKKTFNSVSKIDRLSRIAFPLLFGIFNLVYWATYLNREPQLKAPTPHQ
In test [4] the target is T3, 5-hydroxytryptamine receptor 3A (Homo sapiens, UniProt P46098).
T3 sequence (P46098 whole entry): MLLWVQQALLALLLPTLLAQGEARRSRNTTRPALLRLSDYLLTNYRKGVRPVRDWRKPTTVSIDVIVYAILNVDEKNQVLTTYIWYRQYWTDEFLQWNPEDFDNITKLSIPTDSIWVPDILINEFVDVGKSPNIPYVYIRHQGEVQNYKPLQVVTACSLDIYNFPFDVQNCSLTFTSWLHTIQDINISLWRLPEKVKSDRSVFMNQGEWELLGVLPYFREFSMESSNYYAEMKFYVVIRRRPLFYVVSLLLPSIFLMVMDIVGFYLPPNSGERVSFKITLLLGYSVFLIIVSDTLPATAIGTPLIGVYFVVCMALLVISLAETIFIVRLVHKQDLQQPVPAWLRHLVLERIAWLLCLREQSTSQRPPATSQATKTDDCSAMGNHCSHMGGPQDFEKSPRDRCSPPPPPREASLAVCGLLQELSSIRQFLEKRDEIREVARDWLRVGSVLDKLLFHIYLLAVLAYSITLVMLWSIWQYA
The format is functional.

Test [5] has as its target Delta-type opioid receptor (Homo sapiens, UniProt P41143).
Test [6] addresses cGMP-inhibited 3',5'-cyclic phosphodiesterase 3A (Homo sapiens, UniProt Q14432). The format is functional.
In the next test the target is D(3) dopamine receptor (Homo sapiens, UniProt P35462).
D(3) dopamine receptor, sequence (P35462 whole entry): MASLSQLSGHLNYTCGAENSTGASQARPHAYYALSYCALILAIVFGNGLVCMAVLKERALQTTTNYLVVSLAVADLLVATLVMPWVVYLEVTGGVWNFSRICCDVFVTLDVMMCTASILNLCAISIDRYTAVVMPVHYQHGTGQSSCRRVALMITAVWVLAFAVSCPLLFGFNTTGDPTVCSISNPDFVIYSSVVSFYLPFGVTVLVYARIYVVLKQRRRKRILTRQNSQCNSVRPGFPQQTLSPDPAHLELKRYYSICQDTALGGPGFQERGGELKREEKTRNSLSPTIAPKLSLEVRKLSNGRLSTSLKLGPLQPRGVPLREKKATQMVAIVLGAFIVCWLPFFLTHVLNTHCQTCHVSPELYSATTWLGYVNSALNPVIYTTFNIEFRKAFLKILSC
The target of the next test is Melanocortin receptor 3 (Homo sapiens, UniProt P41968).
Melanocortin receptor 3, sequence (P41968 whole entry): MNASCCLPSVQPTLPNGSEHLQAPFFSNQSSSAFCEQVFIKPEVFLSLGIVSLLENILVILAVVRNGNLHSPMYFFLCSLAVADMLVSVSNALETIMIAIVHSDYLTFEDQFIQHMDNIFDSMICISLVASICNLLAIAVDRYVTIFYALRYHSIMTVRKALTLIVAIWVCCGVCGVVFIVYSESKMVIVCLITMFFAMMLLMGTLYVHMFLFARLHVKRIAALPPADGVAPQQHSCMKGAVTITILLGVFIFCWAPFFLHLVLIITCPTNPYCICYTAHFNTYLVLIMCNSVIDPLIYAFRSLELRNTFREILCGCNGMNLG
In test [7] the target is T4, Prostaglandin G/H synthase 1 (Rattus norvegicus, UniProt Q63921).
T4 sequence (Q63921 whole entry): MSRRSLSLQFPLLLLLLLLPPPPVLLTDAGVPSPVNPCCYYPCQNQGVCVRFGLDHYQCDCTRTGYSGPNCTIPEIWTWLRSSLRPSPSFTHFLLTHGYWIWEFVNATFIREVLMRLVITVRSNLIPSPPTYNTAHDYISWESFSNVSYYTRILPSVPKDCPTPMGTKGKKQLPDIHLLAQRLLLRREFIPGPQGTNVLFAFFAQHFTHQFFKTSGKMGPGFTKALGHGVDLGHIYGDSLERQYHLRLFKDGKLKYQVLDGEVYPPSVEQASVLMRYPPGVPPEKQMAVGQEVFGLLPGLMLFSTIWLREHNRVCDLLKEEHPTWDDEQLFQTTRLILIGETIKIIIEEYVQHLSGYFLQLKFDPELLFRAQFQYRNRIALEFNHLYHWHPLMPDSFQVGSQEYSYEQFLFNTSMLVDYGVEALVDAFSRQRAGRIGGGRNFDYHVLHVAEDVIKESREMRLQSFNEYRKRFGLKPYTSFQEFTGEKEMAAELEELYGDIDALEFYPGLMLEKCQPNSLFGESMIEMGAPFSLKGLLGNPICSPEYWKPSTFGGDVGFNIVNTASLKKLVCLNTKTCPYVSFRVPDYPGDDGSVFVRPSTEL
It counts as functional.

Test [8] deals with Sodium-dependent noradrenaline transporter (Homo sapiens, UniProt P23975).
Sodium-dependent noradrenaline transporter, sequence (P23975 whole entry): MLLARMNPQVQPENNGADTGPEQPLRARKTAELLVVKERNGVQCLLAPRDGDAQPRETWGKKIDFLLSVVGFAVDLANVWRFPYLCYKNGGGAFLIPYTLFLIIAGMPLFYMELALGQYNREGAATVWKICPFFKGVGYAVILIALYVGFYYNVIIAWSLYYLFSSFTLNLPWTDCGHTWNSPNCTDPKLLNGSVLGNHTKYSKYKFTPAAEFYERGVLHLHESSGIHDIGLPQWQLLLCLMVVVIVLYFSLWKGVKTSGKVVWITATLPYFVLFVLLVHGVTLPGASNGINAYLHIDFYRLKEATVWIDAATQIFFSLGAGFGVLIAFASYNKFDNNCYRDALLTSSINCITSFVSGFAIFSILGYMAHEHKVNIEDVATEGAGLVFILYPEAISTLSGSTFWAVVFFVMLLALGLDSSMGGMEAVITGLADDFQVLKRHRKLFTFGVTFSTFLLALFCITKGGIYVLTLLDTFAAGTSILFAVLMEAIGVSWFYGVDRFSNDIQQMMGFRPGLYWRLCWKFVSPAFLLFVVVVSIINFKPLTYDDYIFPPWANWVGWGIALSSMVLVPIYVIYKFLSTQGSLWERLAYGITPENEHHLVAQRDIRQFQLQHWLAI

Some results are limits rather than exact numbers.
Note: assay procedure not described here.

cGMP-inhibited 3',5'-cyclic phosphodiesterase 3A, sequence (Q14432 whole entry): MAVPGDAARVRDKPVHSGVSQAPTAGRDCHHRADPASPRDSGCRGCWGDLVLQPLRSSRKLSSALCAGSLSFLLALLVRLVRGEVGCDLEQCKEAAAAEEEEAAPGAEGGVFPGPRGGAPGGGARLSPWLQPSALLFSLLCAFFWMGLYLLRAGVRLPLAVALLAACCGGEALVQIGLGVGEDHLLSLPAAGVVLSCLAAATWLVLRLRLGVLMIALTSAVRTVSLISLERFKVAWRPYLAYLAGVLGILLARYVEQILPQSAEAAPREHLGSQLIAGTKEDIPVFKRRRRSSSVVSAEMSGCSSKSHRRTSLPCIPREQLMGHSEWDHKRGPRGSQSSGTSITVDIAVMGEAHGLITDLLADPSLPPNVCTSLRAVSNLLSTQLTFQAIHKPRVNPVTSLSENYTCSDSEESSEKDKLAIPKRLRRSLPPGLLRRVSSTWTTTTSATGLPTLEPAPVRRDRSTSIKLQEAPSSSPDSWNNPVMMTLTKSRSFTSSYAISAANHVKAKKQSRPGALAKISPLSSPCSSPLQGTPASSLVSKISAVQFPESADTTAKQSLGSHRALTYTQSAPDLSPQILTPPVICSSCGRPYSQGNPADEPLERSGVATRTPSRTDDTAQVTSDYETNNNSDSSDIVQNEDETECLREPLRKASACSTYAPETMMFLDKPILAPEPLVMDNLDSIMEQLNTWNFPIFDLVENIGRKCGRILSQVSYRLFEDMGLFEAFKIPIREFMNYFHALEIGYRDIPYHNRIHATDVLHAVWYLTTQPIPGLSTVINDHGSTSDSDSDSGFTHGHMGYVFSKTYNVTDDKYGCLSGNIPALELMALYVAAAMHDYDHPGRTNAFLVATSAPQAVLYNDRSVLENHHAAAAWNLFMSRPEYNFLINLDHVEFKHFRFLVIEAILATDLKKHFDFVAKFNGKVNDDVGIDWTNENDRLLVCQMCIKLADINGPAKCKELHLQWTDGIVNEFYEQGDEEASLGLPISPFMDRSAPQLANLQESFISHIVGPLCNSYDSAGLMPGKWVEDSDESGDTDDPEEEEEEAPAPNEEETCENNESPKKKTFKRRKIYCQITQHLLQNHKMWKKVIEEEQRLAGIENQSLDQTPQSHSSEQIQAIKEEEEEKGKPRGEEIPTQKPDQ
Delta-type opioid receptor, sequence (P41143 whole entry): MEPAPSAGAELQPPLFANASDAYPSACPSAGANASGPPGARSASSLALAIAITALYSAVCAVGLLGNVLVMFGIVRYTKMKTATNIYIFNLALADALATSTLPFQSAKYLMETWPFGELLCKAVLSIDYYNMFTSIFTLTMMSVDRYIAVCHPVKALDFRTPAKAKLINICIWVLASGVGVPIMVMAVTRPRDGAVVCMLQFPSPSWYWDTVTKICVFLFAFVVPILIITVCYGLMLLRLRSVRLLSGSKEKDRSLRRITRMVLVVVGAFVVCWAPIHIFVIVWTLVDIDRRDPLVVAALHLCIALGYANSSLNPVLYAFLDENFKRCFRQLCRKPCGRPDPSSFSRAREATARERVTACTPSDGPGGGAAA

Take `Cc1c(O)cccc1C(=O)N[C@@H](CSc1ccccc1)[C@H](O)CN1C[C@H]2CCCC[C@H]2C[C@H]1C(=O)NC(C)(C)C`: the AC50 (on Androgen receptor; in test [1]) was > 30 µM in each case.

Regarding `CCS(=O)(=O)N1CC(CC#N)(n2cc(-c3ncnc4[nH]ccc34)cn2)C1` [BARICITINIB], the concentration at half-maximal activity (AC50) (commonly the concentration at which the activity in the assay is half-maximal) on Androgen receptor is > 30 µM.

Consider `O=C1CN=C(c2ccccc2)c2c(sc3c2CCCC3)N1` [BENTAZEPAM], for which the values for the concentration at half-maximal activity (AC50) (at Androgen receptor; in test [1]) were 1.24 µM and > 30 µM, respectively.

As for `O=C(O)CCCN1CCC(O[C@@H](c2ccc(Cl)cc2)c2ccccn2)CC1` [BEPOTASTINE], the half-maximal activity concentration (AC50) (at Androgen receptor; in test [1]) was > 30 µM in each case.

As to `CCCC[N+]1(C)[C@@H]2C[C@@H](OC(=O)[C@H](CO)c3ccccc3)C[C@H]1[C@@H]1O[C@@H]12` (stereo partly specified) [BUTYLSCOPOLAMINE], the AC50 (on Androgen receptor; in test [1]) was > 30 µM in each case.

For the molecule `O=C(c1ccc(F)c(F)c1Nc1ccc(I)cc1F)N1CC(O)([C@@H]2CCCCN2)C1` [COBIMETINIB], the AC50 (on Androgen receptor; in test [1]) was > 30 µM in each case.

In the case of `CN1CCN(C(c2ccccc2)c2ccccc2)CC1` [CYCLIZINE], the concentration at half-maximal activity (AC50) (at Androgen receptor; in test [1]) was > 30 µM each time.

Regarding `NS(=O)(=O)c1cc2c(cc1Cl)NC(C1CC3C=CC1C3)NS2(=O)=O` (stereo unspecified) [CYCLOTHIAZIDE], the concentration at half-maximal activity (AC50) (at Androgen receptor; in test [1]) was > 30 µM throughout.

For `Nc1nc(-n2cc(C(=O)O)c(=O)c3cc(F)c(N4CC(O)C4)c(Cl)c32)c(F)cc1F` [DELAFLOXACIN], the AC50 (at Androgen receptor; in [1]) was > 30 µM each time.

Regarding `CCOc1ccc(/C=C2\NCCc3cc(OCC)c(OCC)cc32)cc1OCC` [DROTAVERINE], the half-maximal activity concentration (AC50) (on Androgen receptor; in test [1]) was > 30 µM each time.

Consider `N/N=c1/cc2c(n[nH]1)CCN(C(=O)c1ccccc1)C2` [ENDRALAZINE], for which the AC50 (in [2]; at Androgen receptor; in [3]; in [4]; in [5]; in [6]) was > 30 µM throughout. Moreover, the AC50 at D(3) dopamine receptor was > 30 µM.

Turning to `CCOC(=O)C(c1c(O)c2ccccc2oc1=O)c1c(O)c2ccccc2oc1=O` [ETHYL BISCOUMACETATE], the concentration at half-maximal activity (AC50) (at Androgen receptor; in test [1]) was > 30 µM each time.

As for `Cc1nc(-c2ccc(OCC(C)C)c(C#N)c2)sc1C(=O)O` [FEBUXOSTAT], the AC50 (on Androgen receptor; in test [1]) was > 30 µM each time.

Consider `C[C@@H]1C[C@H]2[C@@H]3C[C@H](F)C4=CC(=O)C=C[C@]4(C)[C@@]3(F)[C@@H](O)C[C@]2(C)[C@@]1(O)C(=O)COC(=O)C(C)(C)C` [FLUMETHASONE PIVALATE], for which the AC50 on Androgen receptor is 1.4 µM; in [1], > 30 µM.

In the case of `C[C@@H]1C[C@H]2[C@@H]3C[C@H](F)C4=CC(=O)C(Cl)=C[C@]4(C)[C@@]3(F)[C@@H](O)C[C@]2(C)[C@@]1(O)C(=O)CO` [HALOMETASONE], the half-maximal activity concentration (AC50) on Androgen receptor was 10.3 µM; in test [1] it was > 30 µM.

Regarding `CC(C)Cc1ccc(C(C)C(=O)NO)cc1` (stereo unspecified) [IBUPROXAM], the AC50 (on Androgen receptor; in test [1]) was > 30 µM throughout.

In the case of `CS(=O)(=O)Nc1cc2occ(NC=O)c(=O)c2cc1Oc1ccccc1` [IGURATIMOD], the half-maximal activity concentration (AC50) is > 30 µM on Androgen receptor; > 10 µM in test [1]; > 30 µM on Melanocortin receptor 3; > 30 µM in test [5]; > 30 µM in test [7]; > 30 µM in [8]. In addition, the AC50 (in [6]; on D(3) dopamine receptor) was > 30 µM each time.

`O=C(NC1CCN(CCCCC2(C(=O)NCC(F)(F)F)c3ccccc3-c3ccccc32)CC1)c1ccccc1-c1ccc(C(F)(F)F)cc1` [LOMITAPIDE]: the AC50 (at Androgen receptor; in test [1]) was > 30 µM throughout.

In the case of `CCN(CC)CCNc1ccc(C)c2sc3ccccc3c(=O)c12` [LUCANTHONE], the concentration at half-maximal activity (AC50) (on Androgen receptor; in [1]) was > 30 µM throughout.

For the molecule `CCOC(=O)CC(SP(=S)(OC)OC)C(=O)OCC` (stereo unspecified) [MALATHION], at Androgen receptor, the half-maximal activity concentration (AC50) was > 30 µM.

Regarding `CN1C(=O)N(C)C2C1N(C)C(=O)N2C` (stereo unspecified) [MEBICAR], the AC50 (in [2]; at Androgen receptor; in [3]; in [4]; in test [5]; in test [6]) was > 30 µM in each case. For the same molecule, the concentration at half-maximal activity (AC50) on D(3) dopamine receptor was > 30 µM.

For the molecule `C1N2CN3CN1CN(C2)C3` [METHENAMINE], the concentration at half-maximal activity (AC50) (at Androgen receptor; in test [1]) was > 30 µM each time.

Consider `O=[N+]([O-])c1cncn1CCN1CCOCC1` [NIMORAZOLE], for which, at Androgen receptor, the AC50 was > 30 µM.

Take `NC(=O)c1cccc2cn(-c3ccc([C@@H]4CCCNC4)cc3)nc12` [NIRAPARIB]: the AC50 on Androgen receptor was > 30 µM.

Consider `CC(C(=O)O)c1ccc2c(c1)Cc1cccnc1O2` (stereo unspecified) [PRANOPROFEN], for which the half-maximal activity concentration (AC50) (on Androgen receptor; in [1]) was > 30 µM in each case.

In the case of `CCO[C@@H](Cc1ccc(OCCn2c(C)ccc2-c2ccc(SC)cc2)cc1)C(=O)O` [SAROGLITAZAR], the AC50 (at Androgen receptor; in test [1]) was > 30 µM in each case.

In the case of `CN1CCC2=C(C1)c1ccccc1Cc1ccccc12` [SETIPTILINE], the AC50 (at Androgen receptor; in test [1]) was > 30 µM each time.

In the case of `COc1ccc(CCC(C)NCC(O)c2ccc(O)c([S+](C)[O-])c2)cc1` (stereo unspecified) [SULFINALOL], the concentration at half-maximal activity (AC50) (on Androgen receptor; in test [1]) was > 30 µM throughout.

Take `C[C@@H]1O[C@@H](OC[C@H]2O[C@@H](Oc3c(-c4ccc(OCCO)c(OCCO)c4)oc4cc(OCCO)cc(O)c4c3=O)[C@H](O)[C@@H](O)[C@@H]2O)[C@H](O)[C@H](O)[C@H]1O` [TROXERUTIN]: the half-maximal activity concentration (AC50) (at Androgen receptor; in [1]) was > 30 µM throughout.

In the case of `COc1cc2c(cc1OC)[C@H]1C[C@@H](OC(=O)[C@@H](N)C(C)C)[C@H](CC(C)C)CN1CC2` [VALBENAZINE], on Androgen receptor, the AC50 was > 30 µM.

These data come from ChEMBL document CHEMBL5291721, “A preclinical secondary pharmacology resource illuminates target-adverse drug reaction associations of marketed drugs” (Nat Commun, 2023).
